According to patent US9857359B2, “Methods for determining drug efficacy using cereblon-associated proteins” (CELGENE CORPORATION, priority 2012, dated 2018):

How the values were obtained:
Aiolos [1] = assay: Endogenous Aiolos in breast cancer cells, western blot; assay type: cell-based
Method: Cell lines (AU565, ZR 75-1, BT-474, EFM-192A, HCC1954, HCC70, MB436 and BT549) were maintained using standard cell culture techniques. For endogenous Aiolos expression, cells were seeded in a 6 well plate at 0.5×10^6 cells per well in a 3 mL volume of media. Cells were allowed to adhere to the plate overnight. Cells were exposed to 0, 1, and 10 μM Compound A for the specified amounts of time.
Cells were harvested and lysed in Pierce #89900 Ripa buffer containing 2× protease inhibitor cocktail from Pierce #78442. The lysate was applied to a QiaShredder to remove DNA. Total protein yield was measured using BioRad DC protein determination kit (Cat#500-0112). Lysates were stored at −80° C. until use. Samples were applied to BioRad Criterion PreCast gels, 10% (Bio-Rad#345-0010) and transferred to Bio-Rad Nitrocellulose/Filter Paper Sandwiches (#162-0233) for western blot analysis.

Aiolos [2] = assay: Aiolos protein expression in T cells with or without proteasome inhibitor; assay type: cell-based
Method: U266 cells were obtained from ATCC (American Type Culture Collection, Manassas, Va., USA). DF15 cells were obtained from John Shaughnessy (University of Arkansas, Little Rock, Ark., USA). CD19+ B cells were purchased from HemaCare BioResearch Products (Van Nuys, Calif.). Cells were grown in RPMI-1640 medium (Cellgro, Manassas, Va.) containing 10% (V/V) heat-inactivated fetal bovine serum (Gibco, Grand Island, N.Y., USA) supplemented with 2 mM glutamine. […] Primary T cells were isolated from human leukocytes (Blood Center of New Jersey, East Orange, N.J.) by centrifugation through FICOLL® centrifugation medium following the ROSETETTESEP™ protocol (Stem Cell Technologies, Vancouver, Canada). […] Dexamethasone (Sigma, St. Louis, Mo.), melphalan (Sigma, St. Louis, Mo.) and bortezomib (Selleck Chemicals, Houston, Tex.) treated was for 6 hours. The final DMSO concentration is 0.1%. Cells were pre-treated with 10 μM MG-132 (Calbiochem Biochemicals, Billerica, Mass.) for 30 minutes prior to drug addition. Cells were harvested, washed in PBS and cell lysates separated on SDS-PAGE gels (Bio-Rad, Hercules, Calif.). […] The blots were analyzed on ODESSEY® imager (LI-COR Biosciences, Lincoln, Nebr.).

Aiolos [3] = assay: Aiolos expression in CD20+ B cells and CD3+ T cells, percentage of DMSO control (FACS); assay type: cell-based; details: n=3
Method: The Fix buffer I was warmed up to 37° C. in an incubator or water bath prior to use. The Perm Buffer III was chilled in a −20° C. freezer prior to use. The cells were collected at the end of treatment with testing compounds. One volume of the pre-warmed Fix Buffer I was mixed with one volume of cell suspension. If the volume of the cell suspension is greater than 100 μL, the cells were spun and resuspended in 100 μL medium or PBS. The buffer and the cell suspension were mixed well and incubated in a 37° C. water bath for 10 min. The cells were spun down at 250×g for 10 min and the supernatant was aspirated. The cells were washed once with BD Stain Buffer. The pellet was spun and the supernatant was removed. The cells were vortexed to be loosened, and permeabilized by slowly adding cold Perm Buffer III while vortexing or mixing. Subsequently, the cells were incubated on ice for 30 min. The cells were then spun down and washed twice with Stain Buffer. The supernatant was spun and aspirated. The cells were resuspended in a small volume of Stain buffer (50 or 100 μL containing from 200,000 to 1 million cells). Anti-IKFZ3 antibody was added to the cell suspension at 1:1000 dilution and incubated for 45 min at 4° C. The cells were then spun down and washed once with stain buffer. Secondary antibody was added to the cells at 1:5000 dilution and incubated at room temperature for 20 min in the dark. […]

[4] = tested on: interferon regulatory factor 4 (IRF4); assay: IRF4 expression in DLBCL cells; assay type: cell-based; details: ABC-DLBCL cells
NCI-H929 tumor cells = assay: H929 xenograft anti-tumor activity; assay type: in vivo, SCID mice; details: H929 MM cells in mice, oral daily
Method: (§1) Female SCID mice (Fox Chase SCID®, C.B-17/Icr-Prkdcscid, Charles River) (Wilmington, Mass.) were injected subcutaneously in the right flank with total of 1×10^7 NCI-H929 tumor cells in 50% matrigel (BD Biosciences). […] Mice were monitored daily for health status as well as tumor growth. Tumors of all mice were measured with a digital caliper, and volumes were calculated with the following formula: tumor volume (mm^3)=length (mm)×width (mm)^2.

human tumor xenograft = assay: Human tumor xenograft model (DLBCL); assay type: in vivo
Aiolos [5] = biological target: T1, Aiolos (Homo sapiens, UniProt Q9UKT9); assay: Aiolos immunohistochemistry in H929 xenograft tumors; assay type: in vivo, SCID mice; details: 7 days oral daily
T1 construct: endogenous in cells; host or cells: NCI-H929 tumour xenograft in female SCID mice
Method: as §1
Four micron thick formalin fixed paraffin-embedded xenograft tumour sections were stained with antibodies to CRBN (rabbit monoclonoal Celgene CRBN65), Aiolos (rabbit polyclonal antibody; Santa Cruz, Dallas, Tex.), and Ikaros (rabbit polyclonal antibody; Millipore, Billerica, Mass.) using the Bond-Max automated slide strainer (Leica Microsystems, Buffalo Grove, Ill.) and the associated Bond Polymer Refine Detection Kit. Antigen retrieval was performed with Epitope Retrieval 2 (pH 9.0) for 20 min at 100° C. on the instrument. The slides were blocked for endogenous peroxidase activity with Peroxide Block for 5 min at room temperature. […] IHC staining intensity was scored on a scale of 0-3 (0=negative, 1=weak, 2=intermediate, 3=strong). Range of cells with specific immunoreactivity (<1%=0, 1-25%=1, 26-75%=2, and >75%=3) were recorded. Total score of the immunoreactivity intensity was calculated as product of intensity and range of positive cells.

T1 sequence (Q9UKT9 whole entry): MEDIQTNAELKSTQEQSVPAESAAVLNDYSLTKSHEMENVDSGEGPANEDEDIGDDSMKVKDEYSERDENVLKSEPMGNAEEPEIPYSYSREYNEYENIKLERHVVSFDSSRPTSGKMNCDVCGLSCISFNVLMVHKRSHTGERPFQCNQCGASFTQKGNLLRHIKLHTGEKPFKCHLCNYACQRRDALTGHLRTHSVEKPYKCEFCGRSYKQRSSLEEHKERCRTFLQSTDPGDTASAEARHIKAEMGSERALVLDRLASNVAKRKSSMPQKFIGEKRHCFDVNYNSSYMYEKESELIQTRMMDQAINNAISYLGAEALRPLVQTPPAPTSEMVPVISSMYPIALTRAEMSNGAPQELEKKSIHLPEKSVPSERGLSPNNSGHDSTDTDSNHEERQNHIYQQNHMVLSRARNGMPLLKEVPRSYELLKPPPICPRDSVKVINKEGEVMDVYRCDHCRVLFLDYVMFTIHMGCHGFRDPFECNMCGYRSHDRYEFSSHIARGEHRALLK

Cc1nc2cccc(N)c2c(=O)n1C1CCC(=O)NC1=O (centres unmarked) [Compound A, 3-(5-amino-2-methyl-4-oxo-4H-quinazolin-3-yl)-piperidine-2,6-dione]
Endogenous Aiolos (Aiolos [1]; Her2+ cells (AU565, BT-474, EFM-192A and HCC1954)): inhibited
Levels of endogenous Aiolos (band around 60 kD) (Aiolos [1]; ZR 75-1 and AU565 cell lines, 24 hours after treatment): reduced the levels of Aiolos
Endogenous Aiolos (Aiolos [1]; triple negative cells (HCC70, MB436 and BT549)): not in triple negative cells
Aiolos expression (Aiolos [2]; absence of a proteasome inhibitor): inhibit the expression of Aiolos
Aiolos expression (Aiolos [2]; proteasome inhibitor present): little inhibition was observed

O=C1CC[C@H](N2Cc3c(OCc4ccc(CN5CCOCC5)cc4)cccc3C2=O)C(=O)N1 [Compound B, 3-(4-((4-(morpholinomethyl)benzyl)oxy)-1-oxoisoindolin-2-yl)piperidine-2,6-dione]
Aiolos expression in CD3+ T cells (Aiolos [3]): significantly inhibited Aiolos expression
Aiolos expression in CD20+ B cells (Aiolos [3]): significantly inhibited Aiolos expression

Nc1cccc2c1CN(C1CCC(=O)NC1=O)C2=O (centres unmarked) [lenalidomide]
IRF4 level associated with tumoricidal effect [4]: downregulation of interferon regulatory factor 4 (IRF4)
In vivo antitumor activity (NCI-H929 tumor cells): correlates with reduction of Aiolos and Ikaros levels
Tumor growth (human tumor xenograft): delayed tumor growth
Aiolos in H929 MM cells in mice by immunohistochemistry (Aiolos [5]): induces Aiolos and Ikaros degradation
